Source: patent publication US9302999B2, “Substituted triazoles as herbicides” (E. I. DU PONT DE NEMOURS AND COMPANY, priority 2012, dated 2016)

What was measured:
Type in all cases: in vivo
[1] = system: barnyardgrass (Echinochloa crus-galli); assay: Test A pre-/postemergence: barnyardgrass
Summary of the method: (§1)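 Compounds, formulated with surfactant in non-phytotoxic solvent, were applied as a directed soil spray preemergence and as postemergence sprays to 2–10 cm, one- to two-leaf seedlings grown in loam soil blended with sand; visual injury, 0–100, assessed ~10 days post-treatment against untreated controls.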

[2] = system: crabgrass, large (large crabgrass, Digitaria sanguinalis); assay: Test A pre-/postemergence: crabgrass, large
Summary of the method: as §1

[3] = system: morningglory (Ipomoea spp.); assay: Test A pre-/postemergence: morningglory
Summary of the method: as §1

[4] = system: velvetleaf (Abutilon theophrasti); assay: Test A pre-/postemergence: velvetleaf
Summary of the method: as §1

[5] = system: ryegrass, Italian (Italian ryegrass, Lolium multiflorum); assay: Test C pre-/postemergence: ryegrass, Italian
From the text: (§2) Seeds of plant species selected from blackgrass (Alopecurus myosuroides), bromegrass, downy (downy bromegrass, Bromus tectorum), foxtail, green (green foxtail, Setaria viridis), ryegrass, Italian (Italian ryegrass, Lolium multiflorum), winter wheat (Triticum aestivum), wild oat (Avena fatua), galium (catchweed bedstraw, Galium aparine), bermudagrass (Cynodon dactylon), surinam grass (Brachiaria decumbens), cocklebur (common cocklebur, Xanthium strumarium), corn (Zea mays), large crabgrass (Digitaria sanguinalis), woolly cupgrass (Eriochloa villosa), foxtail, giant (giant foxtail, Setaria faberii), goosegrass (Eleusine indica), johnsongrass (Sorghum halepense), kochia (Kochia scoparia), lambsquarters (Chenopodium album), morningglory (Ipomoea coccinea), nightshade (eastern black nightshade, Solanum ptycanthum), nutsedge, yellow (yellow nutsedge, Cyperus esculentus), pigweed (Amaranthus retroflexus), ragweed (common ragweed, Ambrosia elation), soybean (Glycine max), common (oilseed) sunflower (Helianthus annuus), Russian thistle (Salsola kali) and velvetleaf (Abutilon theophrasti) were planted into a blend of loam soil and sand and treated preemergence with test chemicals formulated in a non-phytotoxic solvent mixture which included a surfactant.
(§3) At the same time, plants selected from these crop and weed species and also barley (winter barley, Hordeum vulgare), canarygrass (Phalaris minor), chickweed (common chickweed, Stellaria media) windgrass (Apera spica-venti) and deadnettle (henbit deadnettle, Lamium amplexicaule) were planted in pots containing Redi-Earth® planting medium (Scotts Company, 14111 Scottslawn Road, Marysville, Ohio 43041) comprising spaghnum peat moss, vermiculite, wetting agent and starter nutrients and treated with postemergence applications of test chemicals formulated in the same manner. Plants ranged in height from 2 to 18 cm (1- to 4-leaf stage) for postemergence treatments.
(§4) Treated plants and controls were maintained in a greenhouse for 13 to 15 days, after which time all species were compared to controls and visually evaluated. Plant response ratings, summarized in Table C, are based on a scale of 0 to 100 where 0 is no effect and 100 is complete control. A dash (-) response means no test result.

wild oat (Avena fatua) = assay: Test C pre-/postemergence: wild oat
From the text: as §2, §3, §4

[6] = system: galium (catchweed bedstraw, Galium aparine); assay: Test C pre-/postemergence: galium
From the text: as §2, §3, §4

[7] = system: large crabgrass (Digitaria sanguinalis); assay: Test C pre-/postemergence: large crabgrass
From the text: as §2, §3, §4

[8] = system: nutsedge, yellow (yellow nutsedge, Cyperus esculentus); assay: Test C pre-/postemergence: nutsedge, yellow
From the text: as §2, §3, §4

[9] = system: chickweed (common chickweed, Stellaria media); assay: Test C postemergence: chickweed
From the text: as §3, §4

[10] = system: foxtail, giant (giant foxtail, Setaria faberii); assay: Test A pre-/postemergence: foxtail, giant
Summary of the method: as §1

[11] = Postemergence, 1000 g ai/ha, visual rating on 0 to 100 scale (0 no effect, 100 complete control), approximately ten days
[12] = Preemergence, 1000 g ai/ha, 0 to 100 scale, 0 is no effect, 100 is complete control
[13] = Postemergence, 31 g ai/ha, scale 0 to 100 (0 no effect, 100 complete control)
[14] = Postemergence, 62 g ai/ha, scale 0 to 100 (0 no effect, 100 complete control)
[15] = Postemergence, 125 g ai/ha, scale 0 to 100, 0 no effect, 100 complete control
[16] = Postemergence, 250 g ai/ha, scale 0 to 100
[17] = Preemergence, 31 g ai/ha, scale of 0 to 100, 0 is no effect, 100 is complete control
[18] = Preemergence, 62 g ai/ha, scale of 0 to 100, 0 is no effect, 100 is complete control
[19] = Preemergence, 125 g ai/ha, scale 0 to 100, 0 no effect, 100 complete control
[20] = Preemergence, 250 g ai/ha, scale 0 to 100, 0 no effect, 100 complete control
[21] = Postemergence, 125 g ai/ha, 0 to 100 scale, 0 is no effect, 100 is complete control
[22] = Postemergence, 500 g ai/ha, visual rating on 0 to 100 scale (0 no effect, 100 complete control), approximately ten days
[23] = Preemergence, 125 g ai/ha, 0 to 100 scale where 0 is no effect and 100 is complete control
[24] = Preemergence, 500 g ai/ha, 0 to 100 scale (0 no effect, 100 complete control)
[25] = Postemergence, 500 g ai/ha, 0 to 100 scale, 0 is no effect, 100 is complete control

Cc1nn(-c2ccc(C(F)(F)F)cn2)nc1Cc1cccc(C(F)(F)F)c1 [Compound 106]
Barnyardgrass plant response rating [1, 11]: 40 | Barnyardgrass plant response rating [1, 12]: 50 | Crabgrass, Large plant response rating [2, 11]: 80 | Crabgrass, Large plant response rating [2, 12]: 90 | Morningglory plant response rating [3, 11]: 100 | Morningglory plant response rating [3, 12]: 20 | Velvetleaf plant response rating [4, 11]: 70 | Velvetleaf plant response rating [4, 12]: 0 | Plant response rating, Ryegrass, Italian [5, 13]: 5 | Plant response rating, Ryegrass, Italian [5, 14]: 5 | Plant response rating, Ryegrass, Italian [5, 15]: 20 | Plant response rating, Ryegrass, Italian [5, 16]: 30 | Plant response rating, Ryegrass, Italian [5, 17]: 5 | Plant response rating, Ryegrass, Italian [5, 18]: 20 | Plant response rating, Ryegrass, Italian [5, 19]: 45 | Plant response rating, Ryegrass, Italian [5, 20]: 50 | Plant response rating, Oat, Wild (wild oat (Avena fatua); [13]): 10 | Plant response rating, Oat, Wild (wild oat (Avena fatua); [14]): 30 | Plant response rating, Oat, Wild (wild oat (Avena fatua); [15]): 45 | Plant response rating, Oat, Wild (wild oat (Avena fatua); [16]): 45 | Plant response rating, Oat, Wild (wild oat (Avena fatua); [17]): 10 | Plant response rating, Oat, Wild (wild oat (Avena fatua); [18]): 45 | Plant response rating, Oat, Wild (wild oat (Avena fatua); [19]): 70 | Plant response rating, Oat, Wild (wild oat (Avena fatua); [20]): 80 | Plant response rating, Galium [6, 13]: 65 | Plant response rating, Galium [6, 14]: 65 | Plant response rating, Galium [6, 15]: 80 | Plant response rating, Galium [6, 16]: 80 | Plant response rating, Galium [6, 17]: 5 | Plant response rating, Galium [6, 18]: 10 | Plant response rating, Galium [6, 19]: 60 | Plant response rating, Galium [6, 20]: 90 | Plant response rating, Crabgrass, Large [7, 13]: 40 | Plant response rating, Crabgrass, Large [7, 14]: 55 | Plant response rating, Crabgrass, Large [7, 15]: 65 | Plant response rating, Crabgrass, Large [7, 16]: 65 | Plant response rating, Crabgrass, Large [7, 17]: 100 | Plant response rating, Crabgrass, Large [7, 18]: 100 | Plant response rating, Crabgrass, Large [7, 19]: 100 | Plant response rating, Crabgrass, Large [7, 20]: 100 | Plant response rating, Nutsedge, Yellow [8, 13]: 0 | Plant response rating, Nutsedge, Yellow [8, 14]: 0 | Plant response rating, Nutsedge, Yellow [8, 15]: 0 | Plant response rating, Nutsedge, Yellow [8, 16]: 0 | Plant response rating, Nutsedge, Yellow [8, 17]: 0 | Plant response rating, Nutsedge, Yellow [8, 18]: 0 | Plant response rating, Nutsedge, Yellow [8, 19]: 0 | Plant response rating, Nutsedge, Yellow [8, 20]: 0 | Plant response rating, Chickweed ([9]; 31 g ai/ha, scale 0 to 100 (0 no effect, 100 complete control)): 60 | Plant response rating, Chickweed ([9]; 62 g ai/ha, scale 0 to 100 (0 no effect, 100 complete control)): 70 | Plant response rating, Chickweed ([9]; 125 g ai/ha, scale 0 to 100, 0 no effect, 100 complete control): 95 | Plant response rating, Chickweed ([9]; 250 g ai/ha, scale 0 to 100): 98

Cc1nn(-c2ccc(F)cc2F)nc1Oc1ccnc(C(F)(F)F)c1 [Compound 146]
Barnyardgrass plant response rating [1, 21]: 30 | Barnyardgrass plant response rating [1, 22]: 90 | Plant response rating, Barnyardgrass [1, 23]: 90 | Plant response rating, Barnyardgrass [1, 24]: 100 | Crabgrass, Large plant response rating [2, 21]: 80 | Crabgrass, Large plant response rating [2, 22]: 90 | Plant response rating, Crabgrass, Large [2, 23]: 100 | Plant response rating, Crabgrass, Large [2, 24]: 100 | Foxtail, Giant plant response rating [10, 21]: 80 | Foxtail, Giant plant response rating [10, 22]: 90 | Plant response rating, Foxtail, Giant [10, 23]: 100 | Plant response rating, Foxtail, Giant [10, 24]: 100 | Plant response rating, Morningglory [3, 21]: 90 | Morningglory plant response rating [3, 22]: 90 | Plant response rating, Morningglory [3, 23]: 10 | Plant response rating, Morningglory [3, 24]: 60 | Plant response rating, Velvetleaf [4, 21]: 70 | Velvetleaf plant response rating [4, 22]: 100 | Plant response rating, Velvetleaf [4, 23]: 10 | Plant response rating, Velvetleaf [4, 24]: 50 | Plant response rating, Ryegrass, Italian [5, 17]: 0 | Plant response rating, Ryegrass, Italian [5, 18]: 30 | Plant response rating, Ryegrass, Italian [5, 19]: 55 | Plant response rating, Ryegrass, Italian [5, 20]: 90 | Plant response rating, Oat, Wild (wild oat (Avena fatua); [17]): 5 | Plant response rating, Oat, Wild (wild oat (Avena fatua); [18]): 40 | Plant response rating, Oat, Wild (wild oat (Avena fatua); [19]): 85 | Plant response rating, Oat, Wild (wild oat (Avena fatua); [20]): 90 | Plant response rating, Galium [6, 17]: 95 | Plant response rating, Galium [6, 18]: 95 | Plant response rating, Galium [6, 19]: 95 | Plant response rating, Galium [6, 20]: 100 | Plant response rating, Crabgrass, Large [7, 17]: 98 | Plant response rating, Crabgrass, Large [7, 18]: 100 | Plant response rating, Crabgrass, Large [7, 19]: 100 | Plant response rating, Crabgrass, Large [7, 20]: 100 | Plant response rating, Nutsedge, Yellow [8, 17]: 0 | Plant response rating, Nutsedge, Yellow [8, 18]: 0 | Plant response rating, Nutsedge, Yellow [8, 20]: 10

CCOCc1nn(-c2ccc(F)cc2)nc1Oc1ccnc(C(F)(F)F)c1 [Compound 163]
Plant response rating, Barnyardgrass [1, 21]: 70 | Barnyardgrass plant response rating [1, 25]: 100 | Plant response rating, Barnyardgrass [1, 23]: 90 | Plant response rating, Barnyardgrass [1, 24]: 100 | Plant response rating, Crabgrass, Large [2, 21]: 70 | Crabgrass, Large plant response rating [2, 25]: 100 | Plant response rating, Crabgrass, Large [2, 23]: 100 | Plant response rating, Crabgrass, Large [2, 24]: 100 | Plant response rating, Foxtail, Giant [10, 21]: 60 | Foxtail, Giant plant response rating [10, 25]: 90 | Plant response rating, Foxtail, Giant [10, 23]: 100 | Plant response rating, Foxtail, Giant [10, 24]: 100 | Plant response rating, Morningglory [3, 21]: 30 | Morningglory plant response rating [3, 25]: 80 | Plant response rating, Morningglory [3, 23]: 10 | Plant response rating, Morningglory [3, 24]: 30 | Plant response rating, Velvetleaf [4, 21]: 40 | Velvetleaf plant response rating [4, 25]: 100 | Plant response rating, Velvetleaf [4, 23]: 0 | Plant response rating, Velvetleaf [4, 24]: 20 | Plant response rating, Ryegrass, Italian [5, 17]: 10 | Plant response rating, Ryegrass, Italian [5, 18]: 45 | Plant response rating, Ryegrass, Italian [5, 19]: 65 | Plant response rating, Ryegrass, Italian [5, 20]: 85 | Plant response rating, Galium [6, 17]: 0 | Plant response rating, Galium [6, 18]: 5 | Plant response rating, Galium [6, 19]: 5 | Plant response rating, Galium [6, 20]: 75 | Plant response rating, Crabgrass, Large [7, 17]: 65 | Plant response rating, Crabgrass, Large [7, 18]: 100 | Plant response rating, Crabgrass, Large [7, 19]: 100 | Plant response rating, Crabgrass, Large [7, 20]: 100 | Plant response rating, Nutsedge, Yellow [8, 17]: 0 | Plant response rating, Nutsedge, Yellow [8, 18]: 0 | Plant response rating, Nutsedge, Yellow [8, 19]: 20 | Plant response rating, Nutsedge, Yellow [8, 20]: 75
